Source: patent US20220031596A1, “ANTI-AGING AGENT AND ANTI-AGING METHOD” (priority 2018, published 2022)

Tests used:
Assay type in all cases: in vivo, human
[1] = test system: cortisol concentration in the plasma; experiment: Evaluation of cortisol secretion promoting effect (plasma cortisol, 24-week oral ingestion); details: for cortisol concentration in the plasma, 0 weeks (before ingestion) / cortisol concentration in the plasma, 24 weeks (after ingestion) / cortisol concentration in the plasma, Change rate (24 weeks - 0 weeks): High Dose Group (200 mg/daily, oral), mean±SD; for cortisol concentration in the plasma, 0 weeks (before ingestion): baseline
Experimental: In order to confirm a change in the cortisol quantity before and after ingestion of the nicotinamide mononucleotide, a test was conducted on healthy males and females aged 50 to 70 years.
As a sample of Working Example 11, a capsule formulation containing the nicotinamide mononucleotide and starch (200 mg of the nicotinamide mononucleotide in 4 capsules) (manufactured by SHINKOWA PHARMACEUTICAL Co., Ltd.) was used.
(§1) Each group consisting of five healthy males and females aged 50 to 70 years in an unbiased age group ingested the above high dose capsule formulation once a day by 4 capsules for 24 weeks (total 10 subjects, 200 mg/daily ingestion). In order to conduct appropriate evaluations, those who had been regularly using medical products for chronic diseases, those who had been consuming healthy foods that may affect clinical research, and those who were currently participating in other clinical researches or clinical trials or had participated in other clinical researches or clinical trials within the last three months were excluded from the subject for the evaluation. The capsule formulations were ingested at 10 am (between meals and fasting state) together with water or lukewarm water (oral administration).
Measurement of the cortisol quantity in the plasma was conducted by requesting the measurement to an external public organization according to a usual method. FIGS. 22a to 22c indicate transitions of the cortisol concentration […] in the plasma for 24 weeks. FIG. 22a represents the transitions of the whole subjects; FIG. 22b represents the transitions of the male subjects; FIG. 22c represents the transitions of the female subjects. Further, FIGS. 23a to 23c indicate change rates (%) of the blood cortisol concentration up to 24 weeks when the nicotinamide mononucleotide was orally administered to the subjects for 24 weeks. FIG. 23a represents the change rates of the whole subjects; FIG. 23b represents the change rates of the male subjects; FIG. 23c represents the change rates of the female subjects. Further, Table 10 indicates the numerical values of the cortisol concentration (μg/dl) in the plasma before the ingestion of the nicotinamide mononucleotide (0 weeks) and after the ingestion of the nicotinamide mononucleotide (24 weeks). Note that the numerical values represent mean values±standard deviation.

[2] = test system: growth hormone concentration in the plasma; experiment: Evaluation of growth hormone secretion promoting effect (plasma growth hormone, 24-week oral ingestion); details: for growth hormone concentration in the plasma, 0 weeks (before ingestion) / growth hormone concentration in the plasma, 24 weeks (after ingestion) / growth hormone concentration in the plasma, Change rate (24 weeks - 0 weeks): High Dose Group (200 mg/daily, oral), mean±SD; for growth hormone concentration in the plasma, 0 weeks (before ingestion): baseline
Experimental: In order to confirm a change in the growth hormone quantity before and after ingestion of the nicotinamide mononucleotide, a test was conducted on healthy males and females aged 50 to 70 years.
As a sample of Working Example 2, a capsule formulation containing the nicotinamide mononucleotide and starch (200 mg of the nicotinamide mononucleotide in 4 capsules) (manufactured by SHINKOWA PHARMACEUTICAL Co., Ltd.) was used.
as §1, with “above” for “above high dose”
Measurement of the growth hormone quantity in the plasma was conducted by requesting the measurement to an external public organization according to a usual method. FIGS. 4a to 4c indicate transitions of the growth hormone concentration (ng/ml) in the plasma for 24 weeks. FIG. 4a represents the transitions of the whole subjects; FIG. 4b represents the transitions of the male subjects; FIG. 4c represents the transitions of the female subjects. Further, FIGS. 5a to 5c indicate change rates (%) of the blood growth hormone concentration up to 24 weeks when the nicotinamide mononucleotide was orally administered to the subjects for 24 weeks. FIG. 5a represents the change rates of the whole subjects; FIG. 5b represents the change rates of the male subjects; FIG. 5c represents the change rates of the female subjects. Further, Table 2 indicates the numerical values of the growth hormone concentration (ng/ml) in the plasma before the ingestion of the nicotinamide mononucleotide (0 weeks) and after the ingestion of the nicotinamide mononucleotide (24 weeks). Note that the numerical values represent mean values±standard deviation.

[3] = Safety observation in subjects after ingestion for 24 weeks (complaints, stool abnormality); details: healthy males and females aged 50 to 70 years, oral
Experimental: as §1, with “the above low dose capsule formulation once a day by 4 capsules for 24 weeks (total 10 subjects, a low dose group: 100 mg/daily ingestion). On the other hand, each group consisting of five healthy males and females aged 50 to 70 years in the unbiased age group ingested the above high dose” for “the above high dose”, “10 subjects, a high dose group: 200 mg/daily” for “10 subjects, 200 mg/daily”, “or clinical trials, or had” for “or clinical trials or had”

## NC(=O)c1ccc[n+]([C@@H]2O[C@H](COP(=O)([O-])O)[C@@H](O)[C@H]2O)c1 [nicotinamide mononucleotide]
[1]; Female
  cortisol concentration in the plasma, 0 weeks (before ingestion): 6.82 ± 1.20 µg/dL
  cortisol concentration in the plasma, 24 weeks (after ingestion): 10.56 ± 5.92 µg/dL
  cortisol concentration in the plasma, Change rate (24 weeks - 0 weeks): 3.74 ± 6.16 µg/dL
[1]; Male
  cortisol concentration in the plasma, 0 weeks (before ingestion): 7.97 ± 2.50 µg/dL
  cortisol concentration in the plasma, 24 weeks (after ingestion): 10.30 ± 4.47 µg/dL
  cortisol concentration in the plasma, Change rate (24 weeks - 0 weeks): 2.33 ± 3.38 µg/dL
[1]; Whole Subjects
  cortisol concentration in the plasma, 0 weeks (before ingestion): 7.40 ± 1.94 µg/dL
  cortisol concentration in the plasma, 24 weeks (after ingestion): 10.43 ± 4.95 µg/dL
  cortisol concentration in the plasma, Change rate (24 weeks - 0 weeks): 3.04 ± 4.74 µg/dL
[1]; oral, 200 mg/daily, 24 weeks, FIGS. 22a-22c, 23a-23c
  cortisol concentrations in the plasma, effect of ingestion (in words): increased
[2]; Female
  growth hormone concentration in the plasma, 0 weeks (before ingestion): 0.91 ± 0.28 ng/mL
  growth hormone concentration in the plasma, 24 weeks (after ingestion): 2.14 ± 2.22 ng/mL
  growth hormone concentration in the plasma, Change rate (24 weeks - 0 weeks): 1.24 ± 2.31 ng/mL
[2]; Male
  growth hormone concentration in the plasma, 0 weeks (before ingestion): 0.21 ± 0.12 ng/mL
  growth hormone concentration in the plasma, 24 weeks (after ingestion): 2.41 ± 3.44 ng/mL
  growth hormone concentration in the plasma, Change rate (24 weeks - 0 weeks): 2.20 ± 3.34 ng/mL
[2]; Whole Subjects
  growth hormone concentration in the plasma, 0 weeks (before ingestion): 0.56 ± 0.42 ng/mL
  growth hormone concentration in the plasma, 24 weeks (after ingestion): 2.28 ± 2.73 ng/mL
  growth hormone concentration in the plasma, Change rate (24 weeks - 0 weeks): 1.72 ± 2.76 ng/mL
[2]; oral, 200 mg/daily, 24 weeks, FIGS. 4a-4c, 5a-5c
  growth hormone concentrations in the plasma, effect of ingestion (in words): increased
[3]; 100 mg and 200 mg/daily groups
  unidentified complaint (abdominal pain, nausea, vomiting, headache) or stool abnormality after the ingestion for 24 weeks: did not show any unidentified complaint
[3]; 100 mg/daily
  unidentified complaint (abdominal pain, nausea, vomiting, headache) or stool abnormality after the ingestion for 24 weeks: did not show any unidentified complaint
[3]; 200 mg/daily
  unidentified complaint (abdominal pain, nausea, vomiting, headache) or stool abnormality after the ingestion for 24 weeks: did not show any unidentified complaint
